# Experiments:
# Type in all cases: biochemical
# [1] = tested on: Maillard reaction (lysozyme / fructose, dimer formation); experiment: Maillard reaction-inhibiting effects (lysozyme dimer formation with fructose, SDS-PAGE densitometry); conditions: 10 mg/mL lysozyme, 200 mM fructose, pH 7.4, 37° C., 4 days, dimer formation inhibition rate
# Protocol: This Example examined Maillard reaction-inhibiting effects using, as test compounds, the compounds produced in the above-described Examples and the commercially available substances arginine hydroxamate (Compound No. 111), tyrosine hydroxamate (Compound No. 112), and tryptophan hydroxamate (Compound No. 113). More specifically, 10 mg/mL lysozyme, 200 mM fructose, and each of the above-described test compounds dissolved in a 0.4 mM sodium phosphate buffer (pH 7.4) so as to provide a concentrations of 0.1, 0.3, 1, or 3 mM were incubated at 37° C. for 4 days. After the incubation, the samples were subjected to SDS-PAGE, stained with Coomassie Brilliant Blue R-250, and quantitated for the formed dimmers using a densitometer. The Maillard reaction-inhibiting activity was defined as the dimmer formation inhibition rate of a test compound calculated on the basis that the amount of dimmer is 100% in the absence of the test compound, using, as blank, the amount of dimer in the absence of fructose and the test compound.
# [2] = Methyl glyoxal-trapping activity test (DMB derivatisation, HPLC); conditions: 0.02 mM methyl glyoxal, 0.2 mM test compound, PBS, 37° C., 30 minutes
# Protocol: (§1) In 0.2 mL of PBS were incubated 0.02 mM of methyl glyoxal and 0.2 mM of test compound at 37° C. for 30 minutes. Subsequently, a volume of 5 mM DMB (1,2-diamino-4,5-methylenedioxy benzene) solution equivalent to 10 μL of the incubation sample was added, followed by further incubation at 4° C. for 7 hours to react the remaining methyl glyoxal with DMB. After the end of reaction, a 0.4 M phosphate buffer solution (pH 7.2) was added for neutralization, followed by quantitating the modified product of methyl glyoxal-DMB using HPLC.
# (§2) HPLC having a YMC-Pack Pro C18 column (φ4.6 mm×150 mm) and employing 5 mM sodium phosphate buffer (pH 7.4)-25% acetonitrile as a mobile phase was used at a flow rate of 0.7 mL/min to determine fluorescence strength at Ex352 nm and Em385 nm.
# The proportion of methyl glyoxal trapped by the test compound was calculated as % trapping activity, based on the quantitative value of the total modified product of methyl glyoxal-DMB in the absence of the test compound.
# [3] = Glyoxal-trapping activity test (DMB derivatisation, HPLC); conditions: 0.02 mM glyoxal, 0.2 mM test compound, PBS, 37° C., 30 minutes
# Protocol: as §1, with “of” for “of methyl”
# as §2
# The proportion of glyoxal trapped by the test compound was calculated as % trapping activity, based on the quantitative value of the total modified product of glyoxal-DMB in the absence of the test compound.
# [4] = test compound concentration 0.1 mM
# [5] = test compound concentration 0.3 mM
# [6] = test compound concentration 1 mM
# [7] = test compound concentration 3 mM
Structure (SMILES),"Maillard reaction-inhibiting activity (%) [1, 4]","Maillard reaction-inhibiting activity (%) [1, 5]","Maillard reaction-inhibiting activity (%) [1, 6]","Maillard reaction-inhibiting activity (%) [1, 7]",Methyl-glyoxal-trapping activity (% trapping) [2],Glyoxal-trapping activity (% trapping) [3]
"CCCCCn1cc(CC(N)C(=O)NO)c2ccccc21 (racemic) [Compound No. 105, (RS)-2-amino-3-(1-pentyl-1H-indol-3-yl)-N-hydroxypropionamide]",95%,97%,98%,98%,93.3 ± 0.8 % trapping,69.7 ± 1.1 % trapping
"N#Cc1ccc(Cn2cc(CC(N)C(=O)NO)c3ccccc32)cc1 (racemic) [Compound No. 107, (RS)-2-amino-3-[1-(4-cyanobenzyl)-1H-indol-3-yl]-N-hydroxypropionamide]",101%,100%,101%,101%,87.3 ± 0.5 % trapping,69.8 ± 1.2 % trapping
"N=C(N)NN [Aminoguanidine, reference compound]",−3%,−5%,7%,26%,52.8 ± 1.5 % trapping,32.9 ± 3.8 % trapping
"CCCn1c(CC[C@H](N)C(=O)NO)nc2cc(Cl)c(Cl)cc21 [Compound No. 95, (S)-2-amino-4-(5,6-dichloro-1-propyl-1H-benzimidazol-2-yl)-N-hydroxybutyramide]",102%,106%,107%,108%,84.2 ± 0.6 % trapping,65.7 ± 2.2 % trapping
"N[C@@H](Cc1cn(Cc2c(F)c(F)c(F)c(F)c2F)c2ccccc12)C(=O)NO [Compound No. 104, (S)-2-amino-3-(1-pentafluorophenylmethyl-1H-indol-3-yl)-N-hydroxypropionamide]",95%,97%,94%,100%,81.9 ± 2.1 % trapping,66.5 ± 2.4 % trapping
"NC(N)=NCCC[C@H](N)C(=O)NO [Compound No. 111, arginine hydroxamate]",10%,17%,75%,98%,77.6 ± 0.5 % trapping,75.2 ± 1.3 % trapping
"N[C@@H](Cc1ccc(O)cc1)C(=O)NO [Compound No. 112, tyrosine hydroxamate]",24%,61%,99%,101%,74.4 ± 2.7 % trapping,67.8 ± 1.2 % trapping
"NC(Cc1c[nH]c2ccccc12)C(=O)NO (stereo not drawn) [Compound No. 113, tryptophan hydroxamate]",42%,76%,99%,102%,96.2 ± 0.7 % trapping,75.9 ± 0.9 % trapping

# — patent US20080132539A1, “Hydroxamic Acid Derivative And Age Generation Inhibitor Containing The Derivative” (priority 2003, published 2008)
